{"source": "patent US20250361267A1", "about": "“CHIMERIC COMPOUND FOR DEGRADING CYCLOPHILIN A, PREPARATION METHOD THEREFOR, AND USE THEREOF” (INSTITUTE OF MICROBIOLOGY, CHINESE ACADEMY OF SCIENCES, priority 2022, published 2025)", "key": {"[1]": {"tested_on": "IL-1B, TNF-α, IL-6 and IFN-γ", "design": "species or system C57BL/6 mice", "details": "mouse, in vivo"}, "IBV-induced pneumonia": {"tested_on": "IBV-induced pneumonia", "design": "species or system C57BL/6 mice", "details": "mouse, in vivo"}, "A549 cells [2]": {"tested_on": "A549 cells", "assay": "Effect on A549 cell activity by CCK-8 method", "type": "cell-based", "details": "0 to 10^5 nM, 12 hours", "procedure": "(§1) (1) A549 cells in the logarithmic phase were collected, the concentration of the cell suspension was adjusted, and 100 μL was added per well. The cells to be tested were plated to a density of 10^3 to 10^4 cells/well and incubated at 37° C. under 5% CO2 until the bottom of the wells was covered by a single layer of cells.\n(§2) (2) Different concentrations of the compound represented by Formula I were added: 0, 10, 10^2, 10^3, 10^4 and 10^5 nM/well, with 3 replicate wells set, and incubated at 37° C. under 5% CO2 for 12 hours.\n(1) 10 μL CCK-8 reagent was added to the above cells in each well and reacted for 2 h.\n(2) The incubation was terminated, and the culture medium in the wells was carefully aspirated.\n(3) The absorbance of each well was measured using a microplate reader with a wavelength of 450 nm.\n(4) The absorbance ratio between the experimental group and the control group was calculated as follows: Cell viability=(Absorbance of the experimental group−Blank control)+ (Absorbance of the control group−Blank control)×100%."}, "A549 cells [3]": {"tested_on": "A549 cells", "assay": "Migration and infiltration of lung cancer cells, Transwell chambers", "type": "cell-based", "procedure": "as §1, with “10^3-10^4” for “10^3 to 10^4”\nas §2\nThe upper chamber of a 24-well cell culture insert ([…] pore size) was coated (no migration) or (invasive) with a matrix (1 mg/mL) and dried at 37° C. for 30 min.\n(3) A549/WT and A549/CypA-cells were trypsinized, washed and suspended in serum-free DMEM after treatment with 20 ng/ml TGF-β for 48 h.\n(1) DMEM containing 10% fetal bovine serum was added to the lower chamber per approximately 5×10^4 cells inserted in the upper chamber.\n(2) After incubation for 6 h (migration) or 24 h (invasion), non-migrating or […] cells residing on the upper part of the insert membrane were removed with a cotton swab.\n(3) The cells that migrated to the underside of the membrane were fixed and stained with 2% crystal violet in ethanol.\n(4) The stained cells were observed and counted under a Japan Olympus CKX41 microscope."}, "CypA [4]": {"biological_target": "CypA (Mus musculus, UniProt P17742)", "sequence (P17742 whole entry)": "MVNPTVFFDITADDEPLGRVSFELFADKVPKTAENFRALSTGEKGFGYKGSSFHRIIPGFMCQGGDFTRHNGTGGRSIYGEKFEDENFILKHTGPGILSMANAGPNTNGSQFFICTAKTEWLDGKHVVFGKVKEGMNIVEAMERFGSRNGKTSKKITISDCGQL", "type": "in vivo, C57BL/6 mice", "details": "IBV-infected mice, 10 mg/kg/day, 7 days after infection"}, "rheumatoid arthritis": {"tested_on": "rheumatoid arthritis", "assay": "Rat arthritis model (Freund complete adjuvant)", "type": "in vivo, Lewis rats", "details": "rats, 10 mg/kg tail vein three times/week", "procedure": "The BCG vaccine was inactivated in a water bath at 80° C. for 1 h, ground thoroughly with incomplete Freund adjuvant, and mixed well to prepare 15 mg/mL Freund complete adjuvant (FCA). Lewis rats were divided into 4 groups: blank group (PBS), untreated group (UT), treatment group 1 (compound) and treatment group 2 (MTX (methotrexate)), with 5 rats in each group and a body weight of […]. Except for the PBS group, rats were intradermally injected with 0.1 mL of FCA in the right hind paw. On day 14 after injection, rats in treatment group 1 (compound) were injected with the compound (10 mg/kg of body weight, dissolved in 100 μL of PBS) through the tail vein three times/week; rats in treatment group 2 (MTX (methotrexate)) were intraperitoneally injected with methotrexate (1.2 mg/kg of body weight) three times/week.\nThe circumference of the metatarsophalangeal joint was measured. The circumference of the ankle joint of the left hind paw (on the secondary lesion side) of all rats was measured once before modeling, before administration and 3 weeks after administration, respectively, and the percentage of joint swelling was calculated.\nThe joint index was determined by joint swelling score before administration (Day 0) and 3 weeks after administration. Scoring was carried out based on the redness and swelling degree of the ankle and toe joints of the front and rear limbs of rats and the affected joint index, as follows: 0 for normal; 1 for the redness and swelling of one joint; 2 for the redness and swelling of two or more joints; 3 for severe redness and swelling of the paw below the ankle joint; 4 for the redness and swelling of the entire paw including the ankle joint and inability to bear weight. The limbs were scored separately, and the cumulative sum of the scores was the joint index.\n(1) On the day 21 of administration, rats were euthanized after blood collection. […]\n(2) Joint synovial proliferation and the degree of sub-synovial inflammation were observed under a light microscope, and synovial cell proliferation was scored."}, "CypA [5]": {"biological_target": "T1, CypA (Homo sapiens, UniProt P62937)", "T1 construct": "A549 cells in the logarithmic phase were collected; endogenous in cells; host or cells: A549", "T1 sequence (P62937 whole entry)": "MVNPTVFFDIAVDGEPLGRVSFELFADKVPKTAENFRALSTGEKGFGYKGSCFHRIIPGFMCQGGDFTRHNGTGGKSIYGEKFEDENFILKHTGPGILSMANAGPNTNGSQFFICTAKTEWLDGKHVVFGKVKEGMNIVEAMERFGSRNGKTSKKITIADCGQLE", "assay": "CypA degradation in A549 cells by Western Blot", "type": "cell-based", "details": "A549 cell line", "procedure": "as §1, §2\n(1) The treated cells were scraped off from the culture medium, suspended thoroughly, and then collected by centrifugation at 300 g for 5 minutes. After washing with PBS once, the PBS was discarded.\n(2) 100 μL of 2× Loading Buffer was added to each sample, shaken thoroughly to mix well, denatured at 100° C. for 5 minutes, and stored at −20° C. after mixing well or directly used for Western Blot detection. The Formula of 5× Loading Buffer was as follows: 250 mM Tris-HCl (pH 6.8), 10% (W/V) SDS, 0.5% (W/V) bromophenol blue, 50% (V/V) glycerol, 5% (W/V) β-mercaptoethanol (2-ME). […]\n2) Sample preparation: protein samples were prepared according to experimental requirements, centrifuged, mixed well, and loaded into the loading wells of SDS-PAGE gel. The loading volume was adjusted appropriately according to the protein quantification results. […]"}}, "data": [{"smiles": "Cc1ncsc1-c1ccc(C(C)NC(=O)[C@@H]2C[C@@H](O)CN2C(=O)[C@H](NC(=O)COCCCCCOc2cccc(O)c2C(=O)NC(=O)NC2CCCCC2)C(C)(C)C)cc1", "note": "(stereo partly drawn) [Formula I]", "values": [{"measurement": "expression of IFN-γ in the lung tissue", "setting": "[1]", "value": "significantly reduce"}, {"measurement": "expression of IL-1B in the lung tissue", "setting": "[1]", "value": "significantly reduce"}, {"measurement": "expression of IL-6 in the lung tissue", "setting": "[1]", "value": "significantly reduce"}, {"measurement": "expression of TNF-α in the lung tissue", "setting": "[1]", "value": "significantly reduce"}, {"measurement": "lung inflammation", "setting": "[1]", "value": "alleviating lung inflammation"}, {"measurement": "lung injury (lung index, pathology, pathological scores)", "setting": "IBV-induced pneumonia", "value": "significantly alleviate lung injury"}, {"measurement": "cell viability", "setting": "A549 cells [2]", "value": "above 80%"}, {"measurement": "infiltration of lung cancer cells", "setting": "A549 cells [3]; Transwell with matrix, 24 h", "value": "significantly reduce"}, {"measurement": "migration of lung cancer cells", "setting": "A549 cells [3]; Transwell, 6 h", "value": "significantly reduce"}, {"measurement": "expression of CypA in mouse lung tissue", "setting": "CypA [4]", "value": "significantly reduce"}, {"measurement": "joint index of the ankle joint", "setting": "rheumatoid arthritis; 3 weeks after administration", "value": "reduce"}, {"measurement": "joint swelling", "setting": "rheumatoid arthritis; 3 weeks after administration", "value": "significantly relieve"}, {"measurement": "inflammation of the ankle joint (ankle pathological scores)", "setting": "rheumatoid arthritis; day 21, HE staining", "value": "alleviate"}, {"measurement": "DC50", "setting": "CypA [5]; 12 hours, Western Blot, read-out: half-degradation concentration on CypA", "value": "< 100", "unit": "nM"}, {"measurement": "degradation effect on the CypA protein", "setting": "CypA [5]; WB results", "value": "clearly observed"}]}]}
